US9238821B2, “Metabolic engineering for plant disease resistance” (The Samuel Roberts Noble Foundation, Inc., priority 2009, dated 2016)
Values joined by “and” are separate entries in the source; they are usually repeats but may differ in a detail not shown here. Equal entries are not always repeated. “Also recorded” adds a separate entry of the source.

System: P. omnivora
Test: Fungal inhibition assay against P. omnivora on PDA medium
Format: cell-based, Phymatotrichopsis omnivora
Details: for Fungal growth score (arbitrary scale 0 to 5): 120 h, 0 = no fungal growth (best inhibition), 5 = best fungal growth (no inhibition), two replicate columns; for in vitro growth inhibitory activity against P. omnivora (in words): PDA medium, 0.1 mM and 0.5 mM

Compound	Fungal growth score (arbitrary scale 0 to 5) (compound 0.1 mM in PDA medium)	Fungal growth score (arbitrary scale 0 to 5) (compound 0.5 mM in PDA medium)	in vitro growth inhibitory activity against P. omnivora (in words)	in vitro growth inhibitory activity against P. omnivora (in words) (listed as 7, 4′-dihydroxyflavone)
medicarpin	2 and 1	1 and 0	strong inhibition; also recorded: inhibited; also recorded: substantial in vitro growth inhibitory activity; also recorded: inhibit growth	
O=c1cc(-c2ccc(O)cc2)oc2cc(O)cc(O)c12 [apigenin]	5	5	not in vitro active	
O=C(/C=C/c1ccc(O)cc1)c1ccc(O)cc1O [isoliquiritigenin]	4	4		
O=C1C[C@@H](c2ccc(O)cc2)Oc2cc(O)ccc21 [liquiritigenin]	5	5	no inhibition activity	
Oc1ccccc1O [catechol, reference compound]	2	0		
O=c1cc(-c2ccc(O)cc2)oc2cc(O)ccc12 [7,4′-dihydroxyflavone]	3	0	strongly inhibited; also recorded: inhibited; also recorded: substantial in vitro growth inhibitory activity; also recorded: inhibit growth	substantial in vitro growth inhibitory activity
O=C1C[C@@H](c2ccc(O)cc2)Oc2cc(O)cc(O)c21 [naringenin]	4 and 5	3 and 5	no inhibition activity	
O=c1cc(-c2ccc(O)cc2)oc2cc(O)c(O)cc12 [6,7,4′-trihydoxyflavone]			not active	
COc1ccc(-c2coc3cc(O)ccc3c2=O)cc1 [formononetin, reference compound]	4	4	not active	
